Assay results as given in PubChem BioAssay AID2060614 (Molecular Pharmacology Branch, DTP, NCI, 2025).

Test system: 598228-144-R-J1-PDC complex spheroids, viability
Assay: Anticancer human tumor 598228-144-R-J1-PDC patient-derived serous endometrial adenocarcinoma cell line growth inhibition [CLK]
Conditions: for IC50: curve of first compound; for viability, T/C: stronger effect = lower value
Description: A high-throughput screen of multi-cell type tumor spheroids was designed to identify active combinations of […] and targeted small molecules. Complex spheroids include a stromal component modeled by human endothelial cells (HUVEC) and fibroblasts modeled by human mesenchymal stem cells (MSCs). The concentration ranges selected for each drug and investigational agent were based upon clinically achievable concentrations if the clinical Cmax of the agent was known.
Compounds. The drugs and investigational agents: cirtuvivint (SM08502; NSC835563), CC-671 (NSC850746), vemurafenib (NSC761431), tapotoclax (NSC804041), sotorasib (NSC818433), adagrasib (NSC831453), MRTX-1133 (NSC836407), BAY2416964 (NSC825713), copanlisib (NSC816437), inavolisib (NSC800729), abemaciclib (NSC768073), osimertinib (NSC779217), entinostat (NSC756642), eltanexor (KPT-8602, NSC794443), venetoclax (NSC766270), ceralasertib (NSC777638), bortezomib (NSC756655), olaparib (NSC753686), talazoparib (NSC767125), alisertib (NSC759677), peposertib (NSC802822), gemcitabine (NSC613327), 5-fluorouracil (NSC19893), SN-38 (NSC673596), oxaliplatin (NSC266046), paclitaxel (NSC125973), and doxorubicin (NSC123127), were obtained from the National Cancer Institute (NCI) Developmental Therapeutics Program Chemical Repository. The FDA-approved anticancer drug set is available from the Developmental Therapeutics Program at https://dtp.cancer.gov/organization/dscb/obtaining/available plates.htm. […] The stock solutions were prepared in dimethyl sulfoxide (DMSO, Sigma-Aldrich, St. Louis, MO, cat. D2650), except for the platinum complexes which were prepared in saline (Quality Biological, Gaithersburg, MD, cat. 114-055-101), at 800-fold the tested concentration and stored at -70 degrees C prior to their use. All drugs and investigational agents were tested over a range starting from a high concentration at or near the clinical Cmax and decreasing in half-log increments. If the clinical Cmax for an agent had not been determined, the highest concentration tested was 10 microM.
Cell Culture. All cells were maintained in an incubator at 37 degrees C and 5% CO2 with 95% humidity. The PDC lines were cultured according to standard operating procedures established by the NCI PDMR. Briefly, all PDCs were thawed and cultured in Matrigel-coated flasks prepared with a working solution of 1X Ham's F-12 nutrient mix, without supplementation (Invitrogen, Waltham, MA, cat. 11765054), 100 U/mL penicillin-streptomycin (Invitrogen, cat. 15140122), and 2.5% Matrigel (Corning Inc., Corning, NY, cat. 354248) for the first three passages. The 947758-054-R-J2-PDC line was cultured in 6B/Colon 1A media, which includes advanced DMEM/F-12 (Thermo Fisher Scientific, cat. 12634028), 10 mM HEPES (Thermo Fisher Scientific, cat. 15630080), 1X GlutaMAX supplement (Thermo Fisher Scientific, cat. 35050061), 0.1 mg/mL primocin (InvivoGen, cat. ant-pm-2), 10% defined fetal bovine serum, heat inactivated (HyClone Laboratories Inc., cat. SH30070.03HI), 1.25 mM N-Acetyl-L-cysteine (Sigma-Aldrich, cat. A9165), 10 mM nicotinamide (Sigma-Aldrich, cat. N0636), 1X B-27 supplement (Thermo Fisher Scientific, cat. 17504044), 1X N-2 supplement (Thermo Fisher Scientific, cat. 17502048), and 10 microM Y-27632 dihydrochloride (Tocris Bioscience, cat. 1254). The 876862-298-R-J1-PDC was cultured in 6E media, which includes all 6B/Colon 1A media components plus 50% L-WRN conditioned media (ATCC, cat. CRL-3276), 50 ng/mL recombinant human EGF recombinant protein (hEGF; Thermo Fisher Scientific, cat. PHG0311), 10 ng/mL recombinant human fibroblast growth factor 10 (hGFG-10; PeproTech, cat. 100-26), 1 ng/mL recombinant human fibroblast growth factor 2 (hFGF-2; PeproTech, cat. 100-18B), and 1 µM prostaglandin E2 (PGE2; Tocris, cat. 2296). The 227483-062-R1-J1-PDC line was cultured in Panc media, containing all 6E components except hFGF-2, with the addition of 500 nM SB-431542 (Selleckchem, cat. S1067) and 10 nM gastrin (Tocris, cat. 3006). […]
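Further: spheroids exposed to compounds for seven days before readout.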
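Wherever viability, T/C is given: 100% = DMSO vehicle control wells.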

Question: What does the source list for `C=CC(=O)Nc1cc(Nc2nccc(-c3cn(C)c4ccccc34)n2)c(OC)cc1N(C)CCN(C)C` + CN1CCN(c2cc(C(=O)Nc3cc4cc(-c5cnn(C)c5)ccc4cn3)ccn2)CC1?
Answer: IC50 (second compound 0.0316 µM): > 300 nM; IC50 (second compound 0.1 µM): > 300 nM; IC50 (second compound 0.316 µM): < 0.949 nM; IC50 (second compound 1 µM): < 0.949 nM; IC50 (second compound 3.16 µM): < 0.949 nM; IC50 (second compound 10 µM): < 0.949 nM; viability, T/C (second compound 0.0316 µM, first compound 0.000949 µM): 133%; viability, T/C (second compound 0.0316 µM, first compound 0.003 µM): 108%; viability, T/C (second compound 0.0316 µM, first compound 0.00949 µM): 114%; viability, T/C (second compound 0.0316 µM, first compound 0.03 µM): 117%; viability, T/C (second compound 0.0316 µM, first compound 0.0949 µM): 108%; viability, T/C (second compound 0.0316 µM, first compound 0.3 µM): 98.8%; viability, T/C (second compound 0.1 µM, first compound 0.000949 µM): 127%; viability, T/C (second compound 0.1 µM, first compound 0.003 µM): 126%; viability, T/C (second compound 0.1 µM, first compound 0.00949 µM): 116%; viability, T/C (second compound 0.1 µM, first compound 0.03 µM): 112%; viability, T/C (second compound 0.1 µM, first compound 0.0949 µM): 103%; viability, T/C (second compound 0.1 µM, first compound 0.3 µM): 91.9%; viability, T/C (second compound 0.316 µM, first compound 0.000949 µM): 19.6%; viability, T/C (second compound 0.316 µM, first compound 0.003 µM): 17%; viability, T/C (second compound 0.316 µM, first compound 0.00949 µM): 17.1%; viability, T/C (second compound 0.316 µM, first compound 0.03 µM): 15.4%; viability, T/C (second compound 0.316 µM, first compound 0.0949 µM): 12.5%; viability, T/C (second compound 0.316 µM, first compound 0.3 µM): 14.6%; viability, T/C (second compound 1 µM, first compound 0.000949 µM): 1.75%; viability, T/C (second compound 1 µM, first compound 0.003 µM): 2.14%; viability, T/C (second compound 1 µM, first compound 0.00949 µM): 6.03%; viability, T/C (second compound 1 µM, first compound 0.03 µM): 1.51%; viability, T/C (second compound 1 µM, first compound 0.0949 µM): 1.29%; viability, T/C (second compound 1 µM, first compound 0.3 µM): 3.97%; viability, T/C (second compound 3.16 µM, first compound 0.000949 µM): 1.65%; viability, T/C (second compound 3.16 µM, first compound 0.003 µM): 1.56%; viability, T/C (second compound 3.16 µM, first compound 0.00949 µM): 2.1%; viability, T/C (second compound 3.16 µM, first compound 0.03 µM): 1.72%; viability, T/C (second compound 3.16 µM, first compound 0.0949 µM): 2.58%; viability, T/C (second compound 3.16 µM, first compound 0.3 µM): 2.49%; viability, T/C (second compound 10 µM, first compound 0.000949 µM): 1.18%; viability, T/C (second compound 10 µM, first compound 0.003 µM): 1.02%; viability, T/C (second compound 10 µM, first compound 0.00949 µM): 1.77%; viability, T/C (second compound 10 µM, first compound 0.03 µM): 1.25%; viability, T/C (second compound 10 µM, first compound 0.0949 µM): 5.91%; viability, T/C (second compound 10 µM, first compound 0.3 µM): 2.52%

Question: Which results are given for `Nc1ccccc1NC(=O)c1ccc(CNC(=O)OCc2cccnc2)cc1` + CN1CCN(c2cc(C(=O)Nc3cc4cc(-c5cnn(C)c5)ccc4cn3)ccn2)CC1?
Answer: IC50 (second compound 0.0316 µM): 1780 nM; IC50 (second compound 0.1 µM): 2170 nM; IC50 (second compound 0.316 µM): < 31.6 nM; IC50 (second compound 1 µM): < 31.6 nM; IC50 (second compound 3.16 µM): < 31.6 nM; IC50 (second compound 10 µM): < 31.6 nM; viability, T/C (second compound 0.0316 µM, first compound 0.0316 µM): 125%; viability, T/C (second compound 0.0316 µM, first compound 0.1 µM): 114%; viability, T/C (second compound 0.0316 µM, first compound 0.316 µM): 93.4%; viability, T/C (second compound 0.0316 µM, first compound 1 µM): 68.2%; viability, T/C (second compound 0.0316 µM, first compound 3.16 µM): 32.4%; viability, T/C (second compound 0.0316 µM, first compound 10 µM): 3.45%; viability, T/C (second compound 0.1 µM, first compound 0.0316 µM): 121%; viability, T/C (second compound 0.1 µM, first compound 0.1 µM): 123%; viability, T/C (second compound 0.1 µM, first compound 0.316 µM): 97.2%; viability, T/C (second compound 0.1 µM, first compound 1 µM): 71.3%; viability, T/C (second compound 0.1 µM, first compound 3.16 µM): 41%; viability, T/C (second compound 0.1 µM, first compound 10 µM): 0.32%; viability, T/C (second compound 0.316 µM, first compound 0.0316 µM): 17.1%; viability, T/C (second compound 0.316 µM, first compound 0.1 µM): 14.1%; viability, T/C (second compound 0.316 µM, first compound 0.316 µM): 13%; viability, T/C (second compound 0.316 µM, first compound 1 µM): 10.7%; viability, T/C (second compound 0.316 µM, first compound 3.16 µM): 1.75%; viability, T/C (second compound 0.316 µM, first compound 10 µM): 0.23%; viability, T/C (second compound 1 µM, first compound 0.0316 µM): 1.29%; viability, T/C (second compound 1 µM, first compound 0.1 µM): 1.3%; viability, T/C (second compound 1 µM, first compound 0.316 µM): 1.11%; viability, T/C (second compound 1 µM, first compound 1 µM): 1.01%; viability, T/C (second compound 1 µM, first compound 3.16 µM): 1.46%; viability, T/C (second compound 1 µM, first compound 10 µM): 0.57%; viability, T/C (second compound 3.16 µM, first compound 0.0316 µM): 1.49%; viability, T/C (second compound 3.16 µM, first compound 0.1 µM): 3.39%; viability, T/C (second compound 3.16 µM, first compound 0.316 µM): 1.88%; viability, T/C (second compound 3.16 µM, first compound 1 µM): 1.93%; viability, T/C (second compound 3.16 µM, first compound 3.16 µM): 1.66%; viability, T/C (second compound 3.16 µM, first compound 10 µM): 0.89%; viability, T/C (second compound 10 µM, first compound 0.0316 µM): 0.8%; viability, T/C (second compound 10 µM, first compound 0.1 µM): 0.77%; viability, T/C (second compound 10 µM, first compound 0.316 µM): 1.17%; viability, T/C (second compound 10 µM, first compound 1 µM): 1.13%; viability, T/C (second compound 10 µM, first compound 3.16 µM): 2.8%; viability, T/C (second compound 10 µM, first compound 10 µM): 2.51%
